Assay results: ChEMBL document CHEMBL1155481, “N-Hydroxybenzimidazole inhibitors of ExsA MAR transcription factor in Pseudomonas aeruginosa: In vitro anti-virulence activity and metabolic stability” (Bioorg Med Chem Lett, 2010)

Columns and labels:
J774.A1 = assay: Cytoprotective activity against Pseudomonas aeruginosa-induced cytotoxicity in mouse J774A1 cells assessed as LDH release at 100 uM; assay type: functional
[1] = Chemical stability of the compound; assay type: physicochemical
[2] = target: T1, HTH-type transcriptional regulator ExsA (Pseudomonas aeruginosa (strain ATCC 15692 / PAO1 / 1C / PRS 101 / LMG12228), UniProt P26993); assay: Inhibition of Pseudomonas aeruginosa PAO1 ExsA DNA binding activity
T1 sequence (P26993 whole entry): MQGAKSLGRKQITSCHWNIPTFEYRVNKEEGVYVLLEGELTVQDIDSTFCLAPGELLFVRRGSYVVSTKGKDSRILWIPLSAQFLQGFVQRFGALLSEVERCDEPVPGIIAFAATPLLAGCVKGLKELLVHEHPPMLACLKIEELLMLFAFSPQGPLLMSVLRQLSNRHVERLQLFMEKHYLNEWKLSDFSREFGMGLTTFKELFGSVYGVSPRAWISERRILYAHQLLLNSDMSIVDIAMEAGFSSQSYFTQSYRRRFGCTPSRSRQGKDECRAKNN

[3] = target: T1, HTH-type transcriptional regulator ExsA; assay: Inhibition of Pseudomonas aeruginosa 388 ExsA DNA binding activity
Liver microsomes = assay: Metabolic stability in human liver microsome; assay type: ADME

Structure (SMILES)	Activity (J774.A1) [%]	Stability [1]	IC50 [2] [µM]	IC50 [3] [µM]	Stability (Liver microsomes)
O=C(/C=C/c1ccc(C(F)(F)F)nc1)Nc1ccc(-c2nc3ccc([N+](=O)[O-])cc3n2O)cc1	78.5	Stable	6.7	–	–
CC(=O)c1ccc(/C=C/C(=O)Nc2ccc(-c3nc4ccc([N+](=O)[O-])cc4n3O)cc2)cc1	22.4	Stable	–	3	Stable
CSc1ccc(/C=C/C(=O)Nc2ccc(-c3nc4ccc([N+](=O)[O-])cc4n3O)cc2)cc1	>100	Stable	10.4	–	–
O=C(/C=C/c1ccc(F)cc1)Nc1ccc(-c2nc3ccc([N+](=O)[O-])cc3n2O)cc1	–	–	–	–	Stable
O=C(/C=C/c1ccc(-n2ccnc2)nc1)Nc1ccc(-c2nc3ccc([N+](=O)[O-])cc3n2O)cc1	–	Stable	31.2	–	–
CSc1ccc(/C=C/C(=O)Nc2ccc(-c3nc4ccc(C#N)cc4n3O)cc2)cn1	46.6	Stable	3.5	–	–
CC(=O)c1ccc(/C=C/C(=O)Nc2ccc(-c3nc4ccc(C#N)cc4n3O)cc2)cc1	19.2	Stable	–	13	Stable
CC(=O)c1ccc(/C=C/C(=O)N(CC(N)=O)c2ccc(-c3nc4ccc([N+](=O)[O-])cc4n3O)cc2)cc1	–	Stable	> 47.5	–	–
O=C(/C=C/c1ccc(C(O)(O)C(F)(F)F)cc1)Nc1ccc(-c2nc3ccc([N+](=O)[O-])cc3n2O)cc1	–	Stable	> 100	–	–
CSc1ccc(/C=C/C(=O)Nc2ccc(-c3nc4ccc(C#N)cc4n3O)cc2)cc1	>100	Stable	7.3	–	–
CC(=O)c1ccc(/C=C/C(=O)N(CC(N)=O)c2ccc(-c3nc4ccc(C#N)cc4n3O)cc2)cc1	–	Stable	> 49	–	–
CC(=O)c1ccc(/C=C/C(=O)Nc2ccc(-c3nc4c(CC(=O)O)cc([N+](=O)[O-])cc4n3O)cc2)cc1	65.4	Stable	3.7	–	–
CC(=O)c1ccc(/C=C/C(=O)Nc2ccc(-c3nc4ccc([N+](=O)[O-])cc4n3O)cc2)cn1	12.1	Stable	–	7.5	–
CC(=O)c1ccc(/C=C/C(=O)Nc2ccc(-c3nc4c(CC(=O)O)cc([N+](=O)[O-])cc4n3O)cc2)cn1	33.1	Stable	4.6	–	–
CC(=O)c1ccc(/C=C/C(=O)N(CC(=O)O)c2ccc(-c3nc4ccc(C#N)cc4n3O)cc2)cc1	–	Stable	> 51	–	–
CSc1ccc(/C=C/C(=O)Nc2ccc(-c3nc4ccc([N+](=O)[O-])cc4n3O)cc2)cn1	52.7	Stable	6.9	–	–
CN(C)c1ccc(/C=C/C(=O)Nc2ccc(-c3nc4ccc([N+](=O)[O-])cc4n3O)cc2)cn1	–	Stable	> 100	–	–
